{
  "source": "patent EP0873397B1",
  "about": "“NOVEL MICROORGANISM AND METHOD FOR ENVIRONMENTAL PURIFICATION USING THE SAME” (priority 1996, dated 1998)",
  "assay": "Analysis of byproducts in soil after trichloroethylene decomposition by UV-sterilized bacterial mass",
  "method": "After plating the suspension of the bacterial mass onto a petri dish to a thickness of about 1 mm, and then sterilized under irradiation of a 15 W ultra violet lamp with a wavelength of 260 nm for not less than 60 seconds at a distance of 40 cm from the light source.\nAfter that, trichloroethylene in the soil was allowed to be decomposed and the byproducts which is believed to be formed in association with trichloroethylene decomposition were analyzed in a similar manner to Example 13. Furthermore, in an experiment in which the suspension of sterilized bacterial mass at an amount of 1/100 of that of the NYG medium was inoculated or the suspension was plated as it was onto the NYG agar medium and cultured at 30°C, neither increase in turbidity of the culture liquid nor colony formation were observed, and thereby it was confirmed that there was complete sterilization.",
  "data": [
    {"smiles": "OCC(Cl)(Cl)Cl", "note": "[Trichloroethanol]", "values": [
      {"measurement": "Result (byproduct in the soil)", "value": "Not detected"}
    ]}
  ]
}
